“Also recorded” adds a separate entry of the source.
Tests used:
[1] = biological target: T1, recombinant human CLK3 (Homo sapiens, UniProt P49761); experiment: CLK3 kinase assay (LANCE Ultra); assay type: biochemical; details: 0.5 nM CLK3, 300 μM ATP, 3 hours at 30° C.
T1 construct: purchased Thermo Fisher Scientific PV3826
Procedure, shortened: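 Recombinant human CLK3 (0.5 nM) phosphorylating ULight-CREBtide (50 nM) with 300 μM ATP for 3 h at 30 °C; stopped with EDTA, detected by LANCE Ultra TR-FRET using Eu-anti-phospho-CREB antibody (2 nM, 1 h). IC50 from sigmoidal 4-parameter fit.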

[2] = tested on: MDA-MB-231 cells; experiment: MDA-MB-231 proliferation assay; assay type: cell-based; details: Homo sapiens, 72 hours, YO-PRO-1 readout
Procedure, shortened: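 Cells seeded at 750/well in DMEM with 10% FBS, treated 72 h at 37 °C, 0.5% DMSO final. Cell number read by YO-PRO-1 fluorescence (485/530 nm), normalised to DMSO (100%) and time-of-addition cells (0%); 4-parameter logistic fit with maximum fixed at 100%.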

[3] = tested on: phospho-SRSF6 levels in MDA-MB-468 cells; experiment: Inhibition of phospho-SRSF6 levels in MDA-MB-468 cells (Western blot); assay type: cell-based; details: Homo sapiens, 100 nM, 2 hours, normalized by GAPDH, read-out: % Intensity of p-SRSF6 signal at 100 nM compared to DMSO control
Description: FIG. 1: FIG. 1 provides a representative Western blot showing reduction of phosphorylated-SRSF6 (P-SRSF6) in MDA-MB 468 cells by compounds of the invention. GAPDH was probed for by Western blotting to control for equal protein loading and for normalization of samples. The numbers below the blots show percent intensity of P-SRSF6 signal at 100 nM compared to DMSO control.
Assessment of Inhibition of Phospho-SRSF6 Levels in MDA-MB-468 Cells
MDA-MB-468 cells (ATCC, HTB-132) were cultured in DMEM (BioConcept cat. no. 1-26F03) supplemented with 10% FBS (Sigma cat. no. F9665), 1% Na-pyruvate (Sigma cat. no. S8636), 1% Penicillin-Streptomycin (BioConcept cat. no. 4-01F00-H). When cells reached a density of 70% in 6-well plates (TPP cat. no. 92006), they were treated either with the test compound vehicle DMSO, or with experimental compounds at a final concentration of 100 nM for 2 hours. Thereafter, the culture medium was removed and cells were collected by scraping in Lysis Buffer (20 mM Tris HCl pH7.5, 150 mM NaCl, 1 mM EGTA, 1 mM EDTA, 1% Triton and 1% NP-40) containing protease and phosphatase inhibitors (Halt™ Protease&Phosphatase inhibitor cocktail 100× ThermoScientific cat. no. 1861281) and 1 mM PMSF (Fluka cat. no. 93482). Cleared lysates were stored in Eppendorf tubes at −80° C. until use, and protein concentration in lysates was determined using Pierce 660 nm Protein Assay Reagent (ThermoScientific cat. no. 22660). 20 μg proteins were diluted in 4× Laemmli buffer (Biorad cat. no. 161-0747) containing 10% beta-mercaptoethanol, separated by SDS-PAGE using 10% gels, and then transferred to PVDF membranes (Trans Blot Turbo Transfer Pack BioRad cat. no. 1704156) by Trans-Blot® Turbo™ System semidry blotting methodology (BioRad). Primary antibodies were incubated in TBS-0.1% Tween-20 buffer containing 3% BSA Bovine Albumin Fr.V (Millipore cat. no. 81-053-3) overnight at 4° C. The following primary antibodies were used: Mouse anti-phosphoepitope SR proteins clone 1H4 (Millipore cat. no. MABE50) diluted 1:5000, and rabbit anti-GAPDH clone 14C10 (Cell Signaling cat. no. 2118S) to control for equal protein loading, diluted 1:2000. HRP-conjugated secondary antibodies were incubated one hour at room temperature diluted 1:5000 in TBS-0.1% Tween-20 buffer containing 5% nonfat-dried bovine milk (Sigma cat. no. M7409). The following secondary antibodies were used: Goat anti-mouse-HRP (Jackson cat. no. 115-035-146) and goat anti-rabbit-HRP (Jackson cat. no. 111-035-144). Membranes were incubated with ECL Prime Western Blot Detection Reagent (Amersham cat. no. RPN2236) to detect specific signals using Fusion SOLO S device (Vilber Lourmat). Pixel intensity of the phopsho-SRSF6 (MW 55 kDa in reference to markers) and GAPDH (MW 37 kDa) signals in the Western blots were determined using Evolution-Capt image analysis software (v17.01, Vilber Lourmat). DMSO control was used to set the phospho-SRSF6 signal at baseline, phospho-SRSF6 signals for each sample were normalized by the respective GAPDH signals and percent intensity of P-SRSF6 signal at 100 nM compound compared to DMSO control was calculated (see FIG. 1).

[4] = tested on: CAL-51 triple-negative breast cancer xenograft; experiment: CAL-51 triple-negative breast cancer mouse xenograft model; details: for tumor volumes smaller compared to the vehicle-treated group: day 21, female NCG mice; for tumor volumes compared with vehicle-treated animals (one-way ANOVA, P<0.05): day 21
Description: A pair match was performed when tumors reached an average volume of 100-150 mm^3 to distribute animals into treatment groups (n=8/group), and treatment of the respective groups was initiated. Tumor volumes (expressed in mm^3) were measured twice weekly using a caliper on days 1, 3, 7, 10, 14, 17 and 21 of the treatment period.
To this end, the CAL-51 triple-negative breast cancer xenograft model was used, in which the tumor cells are injected subcutaneously into the flanks of immunodeficient NCG mice (lack functional/mature T, B, and NK cells, and have reduced macrophage and dendritic cell function). […] CAL-51 cells were harvested when they were growing exponentially.
Female NCG mice were used for the study at 8-12 weeks of age (Charles River Laboratories). Mice were inoculated subcutaneously in the flank region with 1×10^7 CAL-51 cells in 50% Matrigel™ in a final injection volume of 0.1 mL/mouse. Once tumors reached an average size of 100-150 mm^3, a pair match was carried out to distribute mice to the different treatment groups.
Tumor volumes (expressed in mm^3) were measured in two dimensions using a caliper on days 1, 3, 7, 10, 14, 17 and 21 of the treatment period. […] Results represent mean values±SEM. Tumor volumes at the conclusion of the study were analyzed by one-way ANOVA analysis to compare treatment groups to the vehicle group. The significance level was set to P<0.05. Calculations were conducted using GraphPad™ Prism version 9.

T1 sequence (P49761 whole entry): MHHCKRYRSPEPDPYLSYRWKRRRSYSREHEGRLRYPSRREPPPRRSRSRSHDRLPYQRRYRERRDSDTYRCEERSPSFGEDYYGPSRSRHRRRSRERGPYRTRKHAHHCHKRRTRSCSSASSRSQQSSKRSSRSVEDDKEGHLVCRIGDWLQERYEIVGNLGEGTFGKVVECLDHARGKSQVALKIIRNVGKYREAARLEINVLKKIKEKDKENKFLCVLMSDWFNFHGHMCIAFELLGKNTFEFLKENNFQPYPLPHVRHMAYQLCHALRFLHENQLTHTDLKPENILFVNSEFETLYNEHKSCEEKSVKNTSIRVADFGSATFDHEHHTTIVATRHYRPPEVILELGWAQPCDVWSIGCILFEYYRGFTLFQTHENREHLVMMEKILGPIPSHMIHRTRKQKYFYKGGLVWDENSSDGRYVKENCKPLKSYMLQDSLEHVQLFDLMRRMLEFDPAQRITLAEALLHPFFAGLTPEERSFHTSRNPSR

IC50 [1]	GI50 [2]	Compound	activity at 0.1 µM [3]	tumor volumes smaller compared to the vehicle-treated group ([4]; 25 mg/kg daily orally)	tumor volumes smaller compared to the vehicle-treated group ([4]; 60 mg/kg three times a week orally)	tumor volumes compared with vehicle-treated animals (one-way ANOVA, P<0.05) ([4]; 60 mg/kg thrice weekly)	tumor volumes smaller compared to the vehicle-treated group ([4]; 85 mg/kg twice a week orally)	tumor volumes compared with vehicle-treated animals (one-way ANOVA, P<0.05) ([4]; 85 mg/kg twice weekly)	tolerability, as evidenced by body weight assessments ([4]; oral 25, 60 or 85 mg/kg schedules, days 1-21, female NCG mice)
4.8 nM	255 nM	CO/N=C1\c2cc(C[C@H]3CC[C@H](N)CC3)ccc2-c2ncnc(N)c2C1(C)C [Example 74, (6Z)-8-[(trans-4-aminocyclohexyl)methyl]-6-methoxyimino-5,5-dimethyl-benzo[h]quinazolin-4-amine]	28%						
40.7 nM	971 nM	C[C@H](O)CO/N=C1\c2cc(O[C@H]3CC[C@H](N)CC3)ccc2-c2ncnc(N)c2C1(C)C [Example 79, (2S)-1-[(Z)-[4-amino-8-(trans-4-aminocyclohexoxy)-5,5-dimethyl-benzo[h]quinazolin-6-ylidene]amino]oxypropan-2-ol]	34%						
9.7 nM	98.5 nM	COCCO/N=C1\c2cc(O[C@H]3CC[C@@H](N)CC3)ccc2-c2ncnc(N)c2C1(C)C [Example 82, (6Z)-8-(cis-4-aminocyclohexoxy)-6-(2-methoxyethoxyimino)-5,5-dimethyl-benzo[h]quinazolin-4-amine]	15%						
4.9 nM	96.2 nM	CC1(C)/C(=N/OCCC#N)c2cc(O[C@H]3CC[C@@H](N)CC3)ccc2-c2ncnc(N)c21 [Example 83, 3-[(Z)-[4-amino-8-(cis-4-aminocyclohexoxy)-5,5-dimethyl-benzo[h]quinazolin-6-ylidene]amino]oxypropanenitrile]	9%						
18.7 nM	255 nM	CC1(C)/C(=N/OCCO)c2cc(O[C@H]3CC[C@@H](N)CC3)ccc2-c2ncnc(N)c21 [Example 87, 2-[(Z)-[4-amino-8-(cis-4-aminocyclohexoxy)-5,5-dimethyl-benzo[h]quinazolin-6-ylidene]amino]oxyethanol]	10%						
9.37 nM	863 nM	COCCN1C[C@@H](CO/N=C2\c3cc(Br)ccc3-c3ncnc(N)c3C2(C)C)OC1=O [Example 90, (5S)-5-[[(Z)-(4-amino-8-bromo-5,5-dimethyl-benzo[h]quinazolin-6-ylidene)amino]oxymethyl]-3-(2-methoxyethyl)oxazolidin-2-one]	29%						
5.1 nM	459 nM	CC1(C)/C(=N/OC[C@@H]2CN(CCO)C(=O)O2)c2cc(Br)ccc2-c2ncnc(N)c21 [Example 91, (5S)-5-[[(Z)-(4-amino-8-bromo-5,5-dimethyl-benzo[h]quinazolin-6-ylidene)amino]oxymethyl]-3-(2-hydroxyethyl)oxazolidin-2-one]	15%						
6.2 nM	240 nM	CC1(C)/C(=N/OC[C@@H]2CNC(=O)O2)c2cc(I)ccc2-c2ncnc(N)c21 [Example 93, (5S)-5-[[(Z)-(4-amino-8-iodo-5,5-dimethyl-benzo[h]quinazolin-6-ylidene)amino]oxymethyl]oxazolidin-2-one]	19%						
1.7 nM	158 nM	CC1(C)/C(=N/OC[C@@H]2CN(CCO)C(=O)O2)c2cc(I)ccc2-c2ncnc(N)c21 [Example 97, (5S)-5-[[(Z)-(4-amino-8-iodo-5,5-dimethyl-benzo[h]quinazolin-6-ylidene)amino]oxymethyl]-3-(2-hydroxyethyl)oxazolidin-2-one]	21%						
5.8 nM	27.6 nM	COCCO/N=C1\c2cc(O[C@H]3CC[C@H](N)CC3)ccc2-c2ncnc(N)c2C12CCCC2 [Example 99, (6Z)-8-(trans-4-aminocyclohexoxy)-6-(2-methoxyethoxyimino)spiro[benzo[h]quinazoline-5,1′-cyclopentane]-4-amine]	17%						
1.2 nM	4.5 nM	N#CCCO/N=C1\c2cc(O[C@H]3CC[C@@H](N)CC3)ccc2-c2ncnc(N)c2C12CCCC2 [Example 101, 3-[(Z)-[4-amino-8-(cis-4-aminocyclohexoxy)spiro[benzo[h]quinazoline-5,1′-cyclopentane]-6-ylidene]amino]oxypropanenitrile]	8%						
2.9 nM	10.1 nM	N#CCCO/N=C1\c2cc(O[C@H]3CC[C@H](N)CC3)ccc2-c2ncnc(N)c2C12CCCC2 [Example 102, 3-[(Z)-[4-amino-8-(trans-4-aminocyclohexoxy)spiro[benzo[h]quinazoline-5,1′-cyclopentane]-6-ylidene]amino]oxypropanenitrile]	7%						

Compound	IC50 [1]	GI50 [2]	activity at 0.1 µM [3]	tumor volumes smaller compared to the vehicle-treated group ([4]; 25 mg/kg daily orally)	tumor volumes smaller compared to the vehicle-treated group ([4]; 60 mg/kg three times a week orally)	tumor volumes compared with vehicle-treated animals (one-way ANOVA, P<0.05) ([4]; 60 mg/kg thrice weekly)	tumor volumes smaller compared to the vehicle-treated group ([4]; 85 mg/kg twice a week orally)	tumor volumes compared with vehicle-treated animals (one-way ANOVA, P<0.05) ([4]; 85 mg/kg twice weekly)	tolerability, as evidenced by body weight assessments ([4]; oral 25, 60 or 85 mg/kg schedules, days 1-21, female NCG mice)
COCCO/N=C1\c2cc(O[C@H]3CC[C@H](N)CC3)ccc2-c2ncnc(N)c2C1(C)C [Example 29, (6Z)-8-(trans-4-aminocyclohexoxy)-6-(2-methoxyethoxyimino)-5,5-dimethyl-benzo[h]quinazolin-4-amine]	15.4 nM	378 nM	12%	41.8%	42.7%	significant; also recorded: significantly smaller	46.8%	significant; also recorded: significantly smaller	well tolerated
CC(F)(F)CCO/N=C1\c2cc(O[C@H]3CC[C@@H](N)CC3)ccc2-c2ncnc(N)c2C1(C)C [Example 115, (6Z)-8-(cis-4-aminocyclohexoxy)-6-(3,3-difluorobutoxyimino)-5,5-dimethyl-benzo[h]quinazolin-4-amine]	19.4 nM	102 nM	17%						
